Experimental findings from patent publication US6831069B2, “Pyrrolo[2,3-d]pyrimidine nucleoside analogs” (priority 1999, dated 2004) are described below.

In one data set the test system is activated human T cells. Description: T cell proliferation, [3H]-thymidine incorporation. Type of data set: cell-based. To be noted: 48 h, read-out: peak inhibition of T cell proliferation. For orientation: Dividing cells build labelled thymidine or BrdU into new DNA.
A further data set concerns CD3+ T cells. Description: Viability by propidium iodide exclusion. The format is cell-based, human. How it is done:
For determination of cytokine protein levels, T-cells (1×10^6 cells in a volume of 1 ml) were activated by the addition of 10 ng PMA plus 0.5 μg ionomycin (both from Calbiochem, La Jolla, Calif.) and incubated in 24 well plates in the presence of 0 to 20 μM nucleoside for up to 48 h at 37° C. and 5% CO2 in a humidified incubator. Following activation, supernatants were analysed for cell-derived cytokine production. For proliferation and viability studies, the protocol as above was modified to a 96 well-plate format using 0.2×10^6 cells in a volume of 0.2 ml and activation with 2 ng PMA and 0.1 μg ionomycin. In separate experiments, 5×10^6 T cells in 2 ml were activated with 20 ng PMA plus 1 μg ionomycin. Here total RNA was isolated from T cells following 6-24 h incubation and analyzed by RT-PCR to determine mRNA levels of various cytokines and inflammatory mediators. […]
T cell proliferative responses were assessed by measuring [3H]-thymidine (1 μCi, ICN, Irvine, Calif.) incorporation for the last 16 h of each assay. Cells were harvested onto filters and DNA synthesis was measured following scintillation counting on a Wallac Betaplate counter (Perkin-Elmer/Wallac, Gaithersburg, Md.). Viability was assessed by propidium iodide (5 μg/ml) exclusion in untreated and nucleoside-treated human T cells stained with FITC-CD3 (Becton Dickinson, San Jose, Calif.). […]

Molecules are shown by their SMILES.

As for `N=C(N)c1cn([C@@H]2O[C@H](CO)[C@@H](O)[C@H]2O)c2nc[nH]c(=O)c12` [ICN 10776, 7-β-D-ribofuranosyl-4-oxopyrrolo-[2,3-d]pyrimidine-5-carboxamidine], in the data set on activated human T cells, the inhibition at 20 µM was 99%. For the same compound, the “viability of resting CD3+ T cells” value in the data set with CD3+ T cells (20 μM, 48 h incubation, decrease from 95%) was found to be 85%. Besides, the “viability of PMA-ION activated CD3+ T cells versus no nucleoside” value in the data set on CD3+ T cells (0.2 to 20 μM, 8 h, 24 h, 48 h) is “no sign difference”.
